Source: article PMC7910608, “Tuning flavin environment to detect and control light-induced conformational switching in Drosophila cryptochrome” (Communications Biology, 2021)

Legend:
Format in all cases: binding
[1] = biological target: T1, dCRY; dCRY(WT)-SORTC-SL (Drosophila melanogaster, UniProt O77059, L405E/C416N); experiment: UV-vis, ENDOR and cw-ESR of bound flavin, blue-light photoreduction; settings: pH 8; neutral semiquinone formed in light
T1 construct: gene cry; full length, N-terminal twin-Strep tag, C-terminal sort-tag (LPGTG) ligated to GGGGC-nitroxide (LPGTGGGGC); E. coli CmpX13

[2] = biological target: T2, dCRY; dCRY(WT)-SORTC-SL (Drosophila melanogaster, UniProt O77059, H378N/L405E/C416N); experiment: cw-ESR, UV-vis and 4P-DEER of bound flavin after blue light; settings: pH 8; neutral semiquinone formed in light
T2 construct: gene cry; full length, N-terminal twin-Strep tag, C-terminal sort-tag (LPGTG) ligated to GGGGC-nitroxide (LPGTGGGGC); E. coli CmpX13

[3] = biological target: T3, dCRY; dCRY(WT)-SORTC-SL (Drosophila melanogaster, UniProt O77059, H378R); experiment: as above; settings: pH 8; anionic semiquinone formed in light
T3 construct: gene cry; full length, N-terminal twin-Strep tag, C-terminal sort-tag (LPGTG) ligated to GGGGC-nitroxide (LPGTGGGGC); E. coli CmpX13

[4] = biological target: T4, dCRY; dCRY(WT)-SORTC-SL (Drosophila melanogaster, UniProt O77059, H378K); experiment: as above; settings: pH 8; anionic semiquinone formed in light
T4 construct: gene cry; full length, N-terminal twin-Strep tag, C-terminal sort-tag (LPGTG) ligated to GGGGC-nitroxide (LPGTGGGGC); E. coli CmpX13

[5] = biological target: T5, dCRY; dCRY(WT)-SORTC-SL (Drosophila melanogaster, UniProt O77059); experiment: X-ray crystal structure, […] A; also UV-vis and ENDOR; settings: dark state; crystals at pH 9; magnesium
T5 construct: gene cry; full length, N-terminal twin-Strep tag, C-terminal sort-tag (LPGTG) ligated to GGGGC-nitroxide (LPGTGGGGC); E. coli CmpX13

[6] = biological target: T6, dCRY; dCRY(WT)-SORTC-SL (Drosophila melanogaster, UniProt O77059, H378R/L405E/C416N); experiment: cw-ESR, UV-vis and 4P-DEER of bound flavin after blue light; settings: pH 8; neutral semiquinone formed in light
T6 construct: gene cry; full length, N-terminal twin-Strep tag, C-terminal sort-tag (LPGTG) ligated to GGGGC-nitroxide (LPGTGGGGC); E. coli CmpX13

[7] = biological target: T7, dCRY; dCRY(WT)-SORTC-SL (Drosophila melanogaster, UniProt O77059, H378K/L405E/C416N); experiment: as above; settings: pH 8; neutral semiquinone formed in light
T7 construct: gene cry; full length, N-terminal twin-Strep tag, C-terminal sort-tag (LPGTG) ligated to GGGGC-nitroxide (LPGTGGGGC); E. coli CmpX13

[8] = biological target: T8, dCRY; dCRY(WT)-SORTC-SL (Drosophila melanogaster, UniProt O77059, H378N); experiment: as above; settings: pH 8; anionic semiquinone formed in light
T8 construct: gene cry; full length, N-terminal twin-Strep tag, C-terminal sort-tag (LPGTG) ligated to GGGGC-nitroxide (LPGTGGGGC); E. coli CmpX13
T8 sequence (O77059 1-539 H378N): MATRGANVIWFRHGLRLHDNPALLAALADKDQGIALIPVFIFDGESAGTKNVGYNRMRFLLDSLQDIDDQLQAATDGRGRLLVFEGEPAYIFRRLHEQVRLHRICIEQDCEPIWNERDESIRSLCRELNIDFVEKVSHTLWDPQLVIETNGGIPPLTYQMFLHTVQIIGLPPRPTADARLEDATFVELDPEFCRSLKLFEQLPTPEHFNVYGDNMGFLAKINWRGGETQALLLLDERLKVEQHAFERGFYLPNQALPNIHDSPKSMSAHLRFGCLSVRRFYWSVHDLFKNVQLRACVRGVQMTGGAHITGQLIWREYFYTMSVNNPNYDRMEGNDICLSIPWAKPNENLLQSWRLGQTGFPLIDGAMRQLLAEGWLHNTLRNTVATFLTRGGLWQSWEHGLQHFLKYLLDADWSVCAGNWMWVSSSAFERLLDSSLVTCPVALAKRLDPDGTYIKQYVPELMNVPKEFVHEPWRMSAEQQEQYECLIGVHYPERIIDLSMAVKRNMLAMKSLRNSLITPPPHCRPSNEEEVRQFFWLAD

T5 sequence (O77059 1-539): as the sequence (O77059 1-539 H378N) above, with N378H counted along it
T3 sequence (O77059 1-539 H378R): as the sequence (O77059 1-539 H378N) above, with N378R counted along it
T6 sequence (O77059 1-539 H378R/L405E/C416N): as the sequence (O77059 1-539 H378N) above, with N378R, L405E, C416N counted along it
T1 sequence (O77059 1-539 L405E/C416N): as the sequence (O77059 1-539 H378N) above, with N378H, L405E, C416N counted along it
T4 sequence (O77059 1-539 H378K): as the sequence (O77059 1-539 H378N) above, with N378K counted along it
T7 sequence (O77059 1-539 H378K/L405E/C416N): as the sequence (O77059 1-539 H378N) above, with N378K, L405E, C416N counted along it
T2 sequence (O77059 1-539 H378N/L405E/C416N): as the sequence (O77059 1-539 H378N) above, with L405E, C416N counted along it

## Cc1cc2nc3c(=O)[nH]c(=O)nc-3n(C[C@H](O)[C@H](O)[C@H](O)COP(=O)(O)OP(=O)(O)OC[C@H]3O[C@@H](n4cnc5c(N)ncnc54)[C@H](O)[C@@H]3O)c2cc1C [FAD]
[1]
  UV-vis, ENDOR and cw-ESR of bound flavin, blue-light photoreduction: Both WT dCRY and L405E/C416N show characteristic absorption bands of oxidized FAD in the dark
[2]
  cw-ESR, UV-vis and 4P-DEER of bound flavin after blue light: triple substitutions (H378K/N/R, L405E, and C416N) led to NSQ formation
[3]
  cw-ESR, UV-vis and 4P-DEER of bound flavin after blue light: H378 substitutions (H378K/N/R) led to ASQ formation
[4]
  cw-ESR, UV-vis and 4P-DEER of bound flavin after blue light: H378 substitutions (H378K/N/R) led to ASQ formation
[5]
  X-ray crystal structure, 2.58 A; also UV-vis and ENDOR: The crystal structure of dCRY-WT-SORTC-SL in the dark state shows that the active site FAD
[6]
  cw-ESR, UV-vis and 4P-DEER of bound flavin after blue light: triple substitutions (H378K/N/R, L405E, and C416N) led to NSQ formation
[7]
  cw-ESR, UV-vis and 4P-DEER of bound flavin after blue light: triple substitutions (H378K/N/R, L405E, and C416N) led to NSQ formation
[8]
  cw-ESR, UV-vis and 4P-DEER of bound flavin after blue light: H378 substitutions (H378K/N/R) led to ASQ formation
